Source: patent publication US20190135834A1, “5-SUBSTITUTED AZABENZIMIDAZOLE DERIVATIVE HAVING ???? ACTIVATION ACTION” (Shionogi & Co., Ltd., priority 2016, published 2019)

Molecular target: T1, Human AMPK α2ß2γ1 (Homo sapiens, UniProt O43741+P54646)
T1 construct: The full length cDNAs of human AMPK ß2 (NM_005399.3) and human AMPK α2 (NM_006252.3); The full length cDNAs of human AMPK ß2 (NM_005399.3); 6xHis (N); made in house; host or cells: Escherichia coli BL21 CodonPlus (DE3)-RIL
Assay: Test Example 2: evaluation of an activator for AMP-activated protein kinase (AMPK), LabChip mobility shift assay with CaMKK2-phosphorylated enzyme
Format: biochemical
Details: for EC150 (compound concentration showing 150% relative to the control (100%)): FL-Peptide 7 substrate, 25° C., 2 hours; for Emax: relative to control (100%), read-out: Emax (maximum rate of increase in activity within the measurement range)
Procedure: The full length cDNAs of human AMPK ß2 (NM_005399.3) and human AMPK α2 (NM_006252.3) were inserted into the MCS1 and MCS2 of the pETDuet-1 vector to prepare a human AMPK ß2 and human AMPK α2 (6× His tag at the 5′ terminus) expressing plasmid. The plasmid was cotransfected with an expression plasmid, in which the full length cDNA of human AMPK γ1 (NM_002733.3) had been inserted into pET28b(+), into BL21 CodonPlus (DE3)-RIL to obtain an expression strain. The expression strain was cultured in TB medium, followed by induction with 0.5 mM IPTG, and cultured at 25° C. for 3 hours and then harvested. After ultrasonication, supernatant was collected and applied to Histrap FF column (GE) and RESOURCE Q column (GE) to prepare 12.5 mg of purified sample containing three types of subunit from 1.8 L of broth.
Preparation method of human CaMKK2 used to impart activity to AMPK An expression vector, in which the full length cDNA of human CAMKK ß (NM_172226.1) had been inserted into pGEX-6P-3, was transfected into BL21 Star (DE3). The expression strain was cultured in TB medium, followed by induction with 0.5 mM IPTG, and cultured at 25° C. for 3 hours and then harvested. After ultrasonication, supernatant was collected and applied to GSTrap FF column (GE) to prepare 14 mg of GST-fused CAMKK ß from 720 ml of broth.
Thus, phosphorylation treatment was carried out as pretreatment.
Human AMPK α2ß2γ1 in an amount to give a conversion rate of approximately 10% by reaction for 2 hours, and CaMKK2 in an amount capable of sufficiently imparting activity to AMPK for one hour were mixed in a buffer solution consisting of a 50 mM HEPES-NaOH buffer solution (pH 7.0), 100 mM NaCl, 5 mM magnesium chloride, 0.1% bovine serum albumin, 0.2 mM sodium orthovanadate(V), 1 mM ethylene glycol-bis(2-aminoethyl ether)-N,N,N′,N′-tetraacetic acid (EGTA), 5 mM disodium ß-glycerophosphate, 1 mM dithiothreitol and 0.2 mM ATP, and the resulting liquid was left to stand at 25° C. for 1 to 1.5 hours to sufficiently phosphorylate AMPK.
After that, to the enzyme liquid, which had been subjected to phosphorylation treatment, a compound dissolved in DMSO was added so as to have a 1% DMSO concentration. The resulting liquid was left to stand for 10 minutes.
To the liquid, a substrate solution consisting of a 50 mM HEPES-NaOH buffer solution (pH 7.0), 100 mM NaCl, 10 mM magnesium chloride, 0.1% bovine serum albumin, 0.2 mM sodium orthovanadate(V), 1 mM ethylene glycol-bis(2-aminoethyl ether)-N,N,N′,N′-tetraacetic acid (EGTA), 5 mM disodium ß-glycerophosphate, 2 mM dithiothreitol, 0.4 mM ATP and 3 μM FL-Peptide 7 (manufactured by Caliper Life Sciences, Inc.) was added in equal amount (10 μl in total). The resulting liquid was allowed to react at 25° C. for 2 hours, and 10 μl of 20 mM EDTA was added thereto to stop the reaction.
To detect phosphorylated fluorescent substrates, the reaction mixture was applied to a measuring device, LabChip EZ Reader II manufactured by Caliper Life Science, Inc., for detecting fluorescence by using differences in mobility due to differences in charge. The setting conditions for the device were pressure, −1.5 PSI; upstream voltage, −2250 V; downstream voltage, −400 V; post sample buffer sip time, 40 seconds; final delay, 120 seconds; and peak order, Product First.
A conversion rate was calculated from the peak heights of the obtained substrate and product. The conversion rate when not containing a compound was used as a control, and a concentration dependent curve was made by plotting the rate of increase in activity to the control at each concentration of a compound.

T1 sequence (P54646 whole entry): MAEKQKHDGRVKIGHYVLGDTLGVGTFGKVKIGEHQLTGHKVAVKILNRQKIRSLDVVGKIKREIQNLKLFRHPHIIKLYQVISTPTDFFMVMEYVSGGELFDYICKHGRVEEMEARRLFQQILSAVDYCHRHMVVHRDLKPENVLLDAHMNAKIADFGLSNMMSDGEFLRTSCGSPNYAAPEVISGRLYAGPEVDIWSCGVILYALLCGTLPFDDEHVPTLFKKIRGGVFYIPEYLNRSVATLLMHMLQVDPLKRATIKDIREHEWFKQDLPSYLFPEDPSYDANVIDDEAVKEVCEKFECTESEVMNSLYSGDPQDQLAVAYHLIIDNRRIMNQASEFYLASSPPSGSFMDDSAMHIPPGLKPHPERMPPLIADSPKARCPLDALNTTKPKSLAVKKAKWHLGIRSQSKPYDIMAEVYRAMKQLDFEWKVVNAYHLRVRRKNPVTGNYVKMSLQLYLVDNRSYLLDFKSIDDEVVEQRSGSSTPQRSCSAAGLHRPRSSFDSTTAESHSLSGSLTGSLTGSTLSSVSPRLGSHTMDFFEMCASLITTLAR
T1 sequence (O43741 whole entry): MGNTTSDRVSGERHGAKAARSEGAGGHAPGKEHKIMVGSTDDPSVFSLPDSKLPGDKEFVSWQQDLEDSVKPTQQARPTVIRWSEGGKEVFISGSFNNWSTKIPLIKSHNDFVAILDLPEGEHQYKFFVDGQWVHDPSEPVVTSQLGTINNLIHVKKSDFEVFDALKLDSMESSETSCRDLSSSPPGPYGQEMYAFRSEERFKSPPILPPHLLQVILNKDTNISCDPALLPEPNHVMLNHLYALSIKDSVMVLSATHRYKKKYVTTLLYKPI
T1 sequence (P54619 whole entry partner): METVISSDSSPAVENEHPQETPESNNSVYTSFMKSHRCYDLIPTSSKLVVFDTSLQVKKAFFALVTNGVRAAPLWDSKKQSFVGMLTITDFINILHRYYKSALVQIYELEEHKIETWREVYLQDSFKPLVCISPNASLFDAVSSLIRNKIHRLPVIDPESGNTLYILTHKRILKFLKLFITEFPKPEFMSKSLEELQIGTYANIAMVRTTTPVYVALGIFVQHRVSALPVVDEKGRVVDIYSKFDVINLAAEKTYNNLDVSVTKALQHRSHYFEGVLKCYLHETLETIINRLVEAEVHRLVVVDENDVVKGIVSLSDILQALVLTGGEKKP

Row | SMILES | EC150 (compound concentration showing 150% relative to the control (100%)) | Emax
1 | COCCCc1cnc2c(c1)CCC2Nc1nc2nc(O[C@@H]3CO[C@H]4[C@@H]3OC[C@H]4O)[nH]c2cc1Cl (single isomer, unassigned) [Compound I-1-10] | 8.4 nM | 608%
2 | COC/C=C/c1cnc2c(c1)CCC2Nc1nc2nc(O[C@@H]3CO[C@H]4[C@@H]3OC[C@H]4O)[nH]c2cc1Cl (single isomer, unassigned) [Compound I-1-13] | 2 nM | 604%
3 | COC/C=C/c1cc(F)c2c(c1)CCC2Oc1nc2nc(O[C@@H]3CO[C@H]4[C@@H]3OC[C@H]4O)[nH]c2cc1Cl (single isomer, unassigned) [Compound I-1-19] | 3.5 nM | 404%
4 | Cn1cc(-c2cc(F)c3c(c2)CCC3Oc2nc3nc(O[C@@H]4CO[C@H]5[C@@H]4OC[C@H]5O)[nH]c3cc2Cl)cn1 (single isomer, unassigned) [Compound I-1-20] | 4.3 nM | 403%
5 | Cn1ccc(-c2cc(F)c3c(c2)CCC3Oc2nc3nc(O[C@@H]4CO[C@H]5[C@@H]4OC[C@H]5O)[nH]c3cc2Cl)cc1=O (single isomer, unassigned) [Compound I-1-23] | 1.3 nM | 454%
6 | Cn1cc(-c2cc(F)c3c(c2)CCC3Nc2nc3nc(O[C@@H]4CO[C@H](CO)C4)[nH]c3cc2Cl)cn1 (single isomer, unassigned) [Compound I-1-29] | 1.9 nM | 426%
7 | O[C@@H]1CO[C@H]2[C@@H]1OC[C@H]2Oc1nc2nc(NC3CCc4cc(Br)cnc43)c(Cl)cc2[nH]1 (stereo partly drawn) [Compound I-1-4] | 11 nM | 547%
8 | OC/C=C/c1cnc2c(c1)CCC2Nc1nc2nc(O[C@@H]3CO[C@H]4[C@@H]3OC[C@H]4O)[nH]c2cc1Cl (stereo partly drawn) [Compound I-1-6] | 6.8 nM | 516%
9 | Cn1cc(-c2cnc3c(c2)CCC3Nc2nc3nc(O[C@@H]4CO[C@H]5[C@@H]4OC[C@H]5O)[nH]c3cc2Cl)cn1 (stereo partly drawn) [Compound I-1-7] | 1.6 nM | 614%
10 | COCCOc1cnc2c(c1)CCC2Nc1nc2nc(O[C@@H]3CO[C@H]4[C@@H]3OC[C@H]4O)[nH]c2cc1Cl (stereo partly drawn) [Compound I-1-11] | 9.8 nM | 606%
11 | COCCNc1cnc2c(c1)CCC2Nc1nc2nc(O[C@@H]3CO[C@H]4[C@@H]3OC[C@H]4O)[nH]c2cc1Cl (stereo partly drawn) [Compound I-1-14] | 33 nM | 371%
12 | Cn1cc(-c2cnc3c(c2)CCC3Oc2nc3nc(O[C@@H]4CO[C@H]5[C@@H]4OC[C@H]5O)[nH]c3cc2Cl)cn1 (stereo partly drawn) [Compound I-1-15] | 10 nM | 388%
13 | COC/C=C/c1cc(F)c2c(c1)CCC2Nc1nc2[nH]c(O[C@@H]3CO[C@H](CO)C3)nc2cc1Cl (stereo partly drawn) [Compound I-1-24] | 25 nM | 423%
14 | OCCOc1cc(F)c2c(c1)CCC2Nc1nc2nc(O[C@@H]3CO[C@H]4[C@@H]3OC[C@H]4O)[nH]c2cc1Cl (stereo partly drawn) [Compound I-1-32] | 2.3 nM | 389%
15 | O[C@@H]1CO[C@H]2[C@@H]1OC[C@H]2Oc1nc2nc(NC3CCc4cc(OC5CCOCC5)cc(F)c43)c(Cl)cc2[nH]1 (stereo partly drawn) [Compound I-1-35] | 4.3 nM | 402%
